Measured values: US7615361B2, “Toxicity screening methods” (Ceetox, Inc., priority 2006, dated 2009)

Columns and labels:
Type in all cases: cell-based, rat
Intracellular ATP levels = assay: Intracellular ATP levels
Procedure: (§1) One test compound (Compound A) was received as dry powder and evaluated for potential cytotoxicity in a battery of in vitro assays. The compound was tested using both rat cardiomyocytes (CM) from rat neonates and a rat hepatoma (H4IIE) cell line. […] The cell supernatant or the cells themselves were harvested for biochemical analysis. General cytotoxicity was evaluated by monitoring membrane integrity, mitochondrial function, cell proliferation, oxidative stress, and apoptosis. In addition, interaction with P-glycoprotein (PgP) on H4IIE cells and solubility of the test compound were also assessed. The means of each exposure group (n=3-7) were calculated for each assay performed.
Intracellular ATP Levels: Cellular Adenosine triphosphate (ATP) was determined with an assay based on a reaction between ATP+D-luciferin+oxygen catalyzed by luciferase to yield Oxyluciferin+AMP+PPi+CO2+light. The emitted light is proportional to the amount of ATP present. […] In addition, a unique cell lysis reagent inhibits endogenous ATPases and therefore stabilizes cellular ATP by preventing its degradation to ADP. ATP is present in all-living cells and declines rapidly upon cell death. In addition, this assay in combination with the MTT assay provides an indicator of mitochondrial activity and energy status of the cell.
Plates were analyzed immediately or stored at −20° C. until needed. On the day of analysis, the plates were thawed and calibration curve prepared with ATP in the same liquid matrix as samples. ATP was quantified by adding ATP substrate solution and then reading luminescence on a Packard Fusion Luminescence or equivalent plate reader.
Intracellular ATP Levels: ATP levels in treated cells could be determined by using the regression coefficients obtained from the linear regression analysis of the calibration curve. Thus, values could be expressed as pmoles ATP/million cells. Background corrected luminescence was used to determine percent change relative to controls by dividing treated values by control values and multiplying by 100.

H4IIE cells = assay: Predicted Ctox from Tox-Panel; settings: 24 HR, estimated sustained plasma concentration where toxicity would be expected in vivo
Procedure: Once all data for a given cluster of assays are received, the data are analyzed to obtain a detailed profile of the compound's toxicity. For example, most conveniently, the data are collated over a dose response range on a single graph. In such an embodiment, the measurement evaluated for each parameter (i.e., each indicator of cell health) at any given concentration is plotted as a percentage of a control measurement obtained in the absence of the compound. However, it should be noted that the data need not be plotted on a single graph, so long as all the parameters are analyzed collectively to yield detailed information of the effects of the concentration of the compound on the different parameters to yield an overall toxicity profile. As set forth below, this overall toxicity profile will facilitate a determination of a plasma concentration Ctox that is predicted to be toxic in vivo. Ctox represents an estimate of the sustained plasma concentration in vivo that would result in toxicity, such as hepatotoxicity or hematopoietic toxicity.
Studies such as these indicate that a preferred concentration for setting Ctox is the highest concentration at which there is no observed effect on any of the indicators being measured in the cluster analysis, especially a 24-hour cluster analysis. […] It will be apparent that 24 hour assays are more time-effective, and consequently, the 24 hour NOEL/Ctox represents a preferred data point to select as Ctox in a CATS assay. It will also be apparent that, with further time studies, it may be possible to select an equally suitable Ctox at other CATS assay time points (e.g., between 24 and 72 hours, or less than 24 hours).
In certain embodiments, the predicting comprises performing concentration response analyses of measurements from at least three separate assays that are employed in the cluster analysis. For example, in the cell health cluster, such predicting will involve monitoring the concentration response effect of the compound on a first health indicator which monitors cellular replication, a second cell health indicator which monitors mitochondrial function, and a third cell health indicator which monitors membrane integrity. Of course, it is understood that fourth, fifth, sixth or more cell health indicators also may be employed. From these concentration response analyses, the highest concentration of the chemical compound at which a measurable toxic effect of the chemical compound is not observable, i.e. NOEL, is determined and the Ctox is identified as the concentration that correlates to the NOEL. In choosing the concentrations of the compound for analysis, one of skill in the art should devise a dose response regimen which is selected to provide an indication of cell health at concentrations of at least two concentration values higher than the Ctox concentration.
The Ctox (H4IIE) value was developed using 24 hr in vitro toxicity data and was validated by retrospectively evaluating compounds across different classes of drugs in 14-day rat studies in which compounds were administered on a daily basis and pharmacokinetic data was available. […] Thus, Ctox values are only determined for the 24 hr in vitro results. The 6 hr toxicity analyses are typically not performed but are beneficial for interpretation of results when compound toxicity is high (e.g., Ctox≦20 μM).

MTT reduction = settings: rat
Procedure: as §1
Experimental Protocol: The test compound was provided and stored at 4° C. until needed. Dosing solutions were prepared in complete culture medium. The rat hepatoma (H4IIE) cell line was used as the test system.
Tetrazolium Dye Reduction: 3-[4,5-dimethylthiazol-2-yl]

[1] = MemTox membrane leakage (AK / α-GST)
Procedure: as §1
Membrane Leakage (α-Glutathione S-transferase and/or Adenylate Kinase): The presence of Adenylate Kinase (AK) or α-Glutathione S-transferase (α-GST), both enzyme leakage markers, was measured in the culture medium using an activity assay for Adenylate Kinase and/or an ELISA assay for α-GST. At the end of the exposure period, the medium covering the cells in each well was removed and placed into new 96-well plates with appropriate labeling. […] Luminescence (AK) values were measured with a Packard Fusion or equivalent plate reader, and absorbance (α-GST) values were measured with a Packard SpectraCount™ or equivalent reader at 450 nm and reference absorbance at 650 nm.
Membrane Leakage (α-Glutathione S-transferase and/or Adenylate Kinase): Leakage of Adenylate Kinase or α-GST from the cell into the culture medium was determined by collecting the culture medium at the end of the exposure period. Thus, the values measured represent total enzyme leakage lost over the exposure period. The control for 100% dead or maximum enzyme release was based on cells treated with 1 mM digitonin at the time of dosing. Percent dead cells relative to digitonin treated cells was determined and then subtracted from 100% to yield the percent live cells.

[2] = neonatal rat cardiomyocytes, rat cardiomyocytes (CM), 24 HR exposure, read-out: ATP TC50
[3] = H4IIE rat hepatoma cells, H4IIE, 24 HR exposure, read-out: MTT TC50
[4] = neonatal rat cardiomyocytes, rat cardiomyocytes (CM), 24 HR exposure, read-out: MemTox TC50

Work on `COc1cccc2c1C(=O)c1c(O)c3c(c(O)c1C2=O)C[C@@](O)(C(=O)CO)C[C@@H]3O[C@H]1C[C@H](N)[C@H](O)[C@H](C)O1` [ADRIAMYCIN, Adriamycin] yielded a CC50 at 1 h (Intracellular ATP levels; rat) of over 300 µM, a CC50 at 3 h (Intracellular ATP levels; rat) of 62 µM and a CC50 at 6 h (Intracellular ATP levels; rat) of 29 µM. The CC50 at 24 h (Intracellular ATP levels; rat) was 6 µM, the “Predicted Ctox” value (H4IIE cells) was 1 µM and the “Predicted Ctox” value (H4IIE cells; listed as DOXORUBICIN) was 7 µM. The CC50 at 24 h (MTT reduction; MTT TC50) was 13 µM, the CC50 at 1 h ([1]; rat) was over 300 µM and the CC50 at 3 h ([1]; rat) was over 300 µM. It also gave a CC50 at 6 h ([1]; rat) of 40 µM and a CC50 at 24 h ([1]; rat) of 7 µM.

For `Cc1cccc(C)c1OCC(=O)N[C@@H](Cc1ccccc1)[C@@H](O)C[C@H](Cc1ccccc1)NC(=O)[C@H](C(C)C)N1CCCNC1=O` [LOPINAVIR, lopinavir], the CC50 at 24 h (Intracellular ATP levels; rat) was 72 µM, the “Predicted Ctox” value (H4IIE cells) was 60 µM and the CC50 at 24 h (MTT reduction; MTT TC50) was 184 µM. It also gave a CC50 at 24 h ([1]; rat) of 76 µM.

In the case of `CC[C@@]1(O)C(=O)OCc2c1cc1n(c2=O)Cc2cc3ccccc3nc2-1` [CAMPTOTHECIN, Camptothecin], the CC50 at 24 h (Intracellular ATP levels; [2]) is reported as over 300 µM, the “Predicted Ctox” value (H4IIE cells) is reported as 0.1 µM and the CC50 at 24 h (MTT reduction; [3]) is reported as 1 µM. For the same compound, the CC50 at 24 h [1, 4] was over 300 µM.

For `COc1cccc2c1C(=O)c1c(O)c3c(c(O)c1C2=O)C[C@@](O)(C(=O)CO)C[C@@H]3O[C@H]1C[C@H](N)[C@@H](O)[C@H](C)O1` [EPIRUBICIN, epirubicin], the CC50 at 24 h (Intracellular ATP levels; rat) was 19 µM, the “Predicted Ctox” value (H4IIE cells) was 8 µM and the CC50 at 24 h (MTT reduction; MTT TC50) was 81 µM. It also gave a CC50 at 24 h ([1]; rat) of 35 µM.

With `COc1cccc2c1C(=O)c1c(O)c3c(c(O)c1C2=O)C[C@@](O)(C(=O)CO)C[C@@H]3O[C@H]1C[C@H](N)[C@H](O[C@@H]2CCCCO2)[C@H](C)O1` [PIRARUBICIN, pirarubicin] the CC50 at 24 h (Intracellular ATP levels; [2]) was 7 µM, the “Predicted Ctox” value (H4IIE cells) was 5 µM and the CC50 at 24 h (MTT reduction; [3]) was 16 µM. It also gave a CC50 at 24 h [1, 4] of 6 µM.

For `O=C1c2c(O)ccc(O)c2C(=O)c2c(NCCNCCO)ccc(NCCNCCO)c21` [MITOXANTRONE, mitoxantrone], the CC50 at 24 h (Intracellular ATP levels; rat) was 2 µM, the “Predicted Ctox” value (H4IIE cells) was 11 µM and the CC50 at 24 h (MTT reduction; MTT TC50) was over 300 µM. It also gave a CC50 at 24 h ([1]; rat) of 2 µM.

For `CC(C)Nc1cccnc1N1CCN(C(=O)c2cc3cc(NS(C)(=O)=O)ccc3[nH]2)CC1` [DELAVIRDINE, delavirdine], the CC50 at 24 h (Intracellular ATP levels; rat) was 166 µM, the “Predicted Ctox” value (H4IIE cells) was 68 µM and the CC50 at 24 h (MTT reduction; MTT TC50) was 218 µM. It also gave a CC50 at 24 h ([1]; rat) of 239 µM.

For `CC(=O)[C@]1(O)Cc2c(O)c3c(c(O)c2[C@@H](O[C@H]2C[C@H](N)[C@H](O)[C@H](C)O2)C1)C(=O)c1ccccc1C3=O` [IDARUBICIN, idarubicin], the CC50 at 24 h (Intracellular ATP levels; rat) was 2 µM, the “Predicted Ctox” value (H4IIE cells) was 1 µM and the CC50 at 24 h (MTT reduction; MTT TC50) was 3 µM. The CC50 at 24 h ([1]; rat) was under 1 µM.

For `O=C1Nc2ccc(Cl)cc2[C@@](C#CC2CC2)(C(F)(F)F)O1` [EFAVIRENZ, efavirenz], the CC50 at 24 h (Intracellular ATP levels; rat) was 75 µM, the “Predicted Ctox” value (H4IIE cells) was 58 µM and the CC50 at 24 h (MTT reduction; MTT TC50) was 161 µM. The CC50 at 24 h ([1]; rat) was 69 µM.

In the case of `Nc1nc(NC2CC2)c2ncn([C@H]3C=C[C@@H](CO)C3)c2n1` [ABACAVIR, abacavir], the CC50 at 24 h (Intracellular ATP levels; rat) is reported as 165 µM, the “Predicted Ctox” value (H4IIE cells) is reported as 65 µM and the CC50 at 24 h (MTT reduction; MTT TC50) is reported as over 300 µM. For the same compound, the CC50 at 24 h ([1]; rat) was over 300 µM.

In the case of `C=C(C)[C@H]1Cc2c(ccc3c2O[C@@H]2COc4cc(OC)c(OC)cc4[C@@H]2C3=O)O1` [ROTENONE, Rotenone], the CC50 at 24 h (Intracellular ATP levels; rat cardiomyocytes (CM), 24 HR exposure, read-out: ATP TC50) is reported as 8 µM, the “Predicted Ctox” value (H4IIE cells) is reported as 0.03 µM and the CC50 at 24 h (MTT reduction; H4IIE, 24 HR exposure, read-out: MTT TC50) is reported as 0.07 µM. For the same compound, the CC50 at 24 h ([1]; rat cardiomyocytes (CM), 24 HR exposure, read-out: MemTox TC50) was 56 µM.

With `COc1cccc2c1C(=O)c1c(O)c3c(c(O)c1C2=O)C[C@@](O)(C(C)=O)C[C@@H]3O[C@H]1C[C@H](N)[C@H](O)[C@H](C)O1` [DAUNORUBICIN, daunorubicin] the CC50 at 24 h (Intracellular ATP levels; rat) was 9 µM, the “Predicted Ctox” value (H4IIE cells) was 3 µM and the CC50 at 24 h (MTT reduction) was 14 µM. The CC50 at 24 h ([1]; rat) was 4 µM.
